For five compounds, IC50 results are on record in patent US10028961B2, “Therapeutically active compounds and their methods of use” (AGIOS PHARMACEUTICALS, INC., priority 2013, dated 2018).

SMILES strings stand for the structures. Where two headings read alike, the source gives them in different places.

In assay [1] the test system is U87MG pLVX-IDH2 R140Q-neo cells. The assay is described as follows: U87MG pLVX-IDH2 R140Q-neo cell based assay, 2-HG by LC-MS. The settings on record: Homo sapiens, U-87 MG.
Assay [2] concerns Neurosphere cells (TS603). The assay can be described thus: Cellular assay for IDH1m R132H inhibitors, 2-HG by LC-MS in neurosphere cells (TS603). The assay is classed as cell-based. The settings on record: 2-HG in media at 48 hours. The method in brief: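 TS603 neurosphere cells in NeuroCult medium were dosed with compound (0.25% DMSO final) at 37 C, 5% CO2. After 48 hours, medium 2-HG was measured by LC-MS. At 72 hours, viability was read by CellTiter-Glo luminescence.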

For assay [3], the target named is IDH1-R132C homodimer enzyme (Homo sapiens (Human), UniProt O75874, R132C). The assay can be described thus: In vitro assay IDH1-R132C homodimer, NADPH depletion assay with NADPH/NADP preincubation. Format: biochemical. The settings on record: 5 uM NADPH and 28.75 uM NADP, read-out: IDH R132C NADPH/NADP IC50. The protocol: The following describes the experimental procedures that can be used to obtain data on columns 3 and 5 of Table 5.
A test compound is prepared as 10 mM stock in DMSO and diluted to 50× final concentration in DMSO, for a 50 μl reaction mixture. IDH enzyme activity converting alpha-ketoglutarate to 2-hydroxyglutaric acid is measured using a NADPH depletion assay. In the assay the remaining cofactor is measured at the end of the reaction with the addition of a catalytic excess of diaphorase and resazurin, to generate a fluorescent signal in proportion to the amount of NADPH remaining. […] The reaction is started with the addition of 10 μl of Substrate Mix ([…], 5 mM alpha-ketoglutarate, in Assay Buffer) and the mixture is incubated for 60 minutes at room temperature.
The concentration of alpha-ketoglutarate in the Substrate Buffer is 1 mM.

Assay [4] addresses IDH1 wt/IDH1 R132H heterodimer (Homo sapiens (Human), UniProt O75874, R132H). The assay can be described thus: In vitro assay for IDH1m R132H inhibitors, IDH1 wt/IDH1 R132H heterodimer, NADPH depletion (diaphorase/resazurin). Format: biochemical. The method in brief:
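Read-out is NADPH left after α-KG reduction to 2-HG, measured via resorufin fluorescence after 5 min diaphorase/resazurin step at 25° C. Enzyme is sf9-expressed IDH1wt-his/IDH1R132H-flag heterodimer, pre-incubated 1 hr at room temperature with compound and cofactor. IC50s from DMSO stocks diluted 1:50.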
Background: Resazurin is reduced to fluorescent resorufin, in cell work by metabolically active cells.

The target of assay [5] is IDH1-R132H homodimer enzyme (Homo sapiens (Human), UniProt O75874, R132H). The assay can be described thus: In vitro assay IDH1-R132H homodimer, NADPH depletion assay with NADPH/NADP preincubation. The settings on record: 5 μM NADPH and 37.5 μM NADP. The assay is classed as biochemical. In outline:
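Compounds were added from DMSO at 50× final concentration, and the mutant enzyme was incubated 60 min at room temperature after starting with a substrate mix holding NADPH and 5 mM alpha-ketoglutarate. Residual cofactor, read by fluorescence after excess diaphorase and resazurin, reflects enzyme turnover.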

The next assay addresses IDH2 R140Q (Homo sapiens (Human), UniProt P48735, R140Q). The assay can be described thus: In vitro assay for IDH2m R140Q inhibitors, cofactor depletion assay. The settings on record: IDH2 R140Q enzyme. The assay is classed as biochemical. The method in brief: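 Remaining cofactor measured fluorimetrically: diaphorase/resazurin Stop Mix […], halting the reaction. Before that, mutant enzyme and compound sat 1 h at RT, then substrate mix (4 μM NADPH, 1.6 mM α-KG) was added for 16 h at RT.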

The mark [6] stands for this setting: IDH1 wt/R132H heterodimer, NADPH/NADP, not saturated, read-out: IDH1 wt/R132H NADPH/NADP IC50 not saturated.
Setting [7] is: IDH1 wt/IDH1 R132H heterodimer, 300 μM NADP (saturated), read-out: IDH1 wt/R132H NADPH/NADP IC50 saturated.

IDH1 wt/IDH1 R132H heterodimer, sequence (O75874 whole entry R132H): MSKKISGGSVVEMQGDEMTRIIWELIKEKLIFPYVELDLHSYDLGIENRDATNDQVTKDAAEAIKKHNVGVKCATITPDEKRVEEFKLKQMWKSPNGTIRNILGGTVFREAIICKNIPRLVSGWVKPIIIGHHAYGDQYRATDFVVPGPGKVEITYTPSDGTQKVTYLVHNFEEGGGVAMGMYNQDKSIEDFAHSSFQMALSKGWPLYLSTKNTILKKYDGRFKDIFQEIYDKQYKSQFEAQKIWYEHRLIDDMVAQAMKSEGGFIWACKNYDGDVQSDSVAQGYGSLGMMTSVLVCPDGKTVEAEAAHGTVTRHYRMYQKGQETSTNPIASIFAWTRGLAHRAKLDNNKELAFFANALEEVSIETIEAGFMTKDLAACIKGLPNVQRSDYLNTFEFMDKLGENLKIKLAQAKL
IDH1 wt/IDH1 R132H heterodimer, sequence (O75874 whole entry, stated change not applied): as the sequence (O75874 whole entry R132H) above, with H132R counted along it
IDH1-R132H homodimer enzyme, sequence (O75874 whole entry R132H): as the sequence (O75874 whole entry R132H) above
IDH1-R132C homodimer enzyme, sequence (O75874 whole entry R132C): as the sequence (O75874 whole entry R132H) above, with H132C counted along it
IDH2 R140Q, sequence (P48735 40-452 R140Q): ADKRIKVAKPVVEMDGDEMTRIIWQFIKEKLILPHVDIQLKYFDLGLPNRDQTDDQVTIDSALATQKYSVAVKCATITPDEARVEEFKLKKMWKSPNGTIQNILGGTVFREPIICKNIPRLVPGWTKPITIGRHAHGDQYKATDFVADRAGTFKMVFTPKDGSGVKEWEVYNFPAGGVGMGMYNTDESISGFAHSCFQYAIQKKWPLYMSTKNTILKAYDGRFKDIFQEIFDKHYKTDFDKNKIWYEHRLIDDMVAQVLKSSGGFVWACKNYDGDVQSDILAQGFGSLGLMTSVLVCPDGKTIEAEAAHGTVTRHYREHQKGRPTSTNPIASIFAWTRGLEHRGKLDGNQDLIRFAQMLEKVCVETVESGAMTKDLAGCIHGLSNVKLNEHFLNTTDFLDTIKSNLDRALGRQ

As for `N#CC1(c2cc(Nc3nc(N[C@H]4CCC(F)(F)C4)nc(-c4cccc(C(F)(F)F)n4)n3)ccn2)CC1` [Compound 133], the IC50 in assay [1] was under 50 nM; in assay [2], under 50 nM; in assay [3] it was 100 to 1000 nM; in assay [4] (setting [6]) it was under 50 nM; in assay [5], 50 to 100 nM; against IDH2 R140Q, under 50 nM.
On to `C[C@@H](Nc1nc(Nc2ccnc(C(F)(F)F)c2)nc(-n2ccc(C(F)(F)F)n2)n1)C(F)(F)F` [Compound 400], for which the IC50 in assay [1] is under 50 nM; in assay [2], under 50 nM; in assay [3], 100 to 1000 nM; in assay [4] (setting [7]), under 50 nM; in assay [5], 100 to 1000 nM; on IDH2 R140Q it was under 50 nM.
Regarding `FC1(F)CC[C@@H](Nc2nc(N[C@@H]3CCC(F)(F)C3)nc(-c3cncc(C(F)(F)F)n3)n2)C1` [Compound 410], the IC50 (in assay [1]; in assay [2]; in assay [3]; in assay [4] (setting [7]); in assay [5]; at IDH2 R140Q) was under 50 nM in each case.
As for `N#CC1(c2cc(Nc3nc(N[C@H]4CCC(F)(F)C4)nc(-n4ccc(C(F)(F)F)n4)n3)ccn2)CC1` [Compound 174], the IC50 in assay [1] is under 50 nM; in assay [2], under 50 nM; in assay [3], 50 to 100 nM; in assay [4] (setting [6]) it was under 50 nM; in assay [5], under 50 nM; against IDH2 R140Q it was under 50 nM.
Turning to `N#CC1(c2cc(Nc3nc(N[C@@H]4CCC(F)(F)C4)nc(-c4cccc(C(F)(F)F)n4)n3)ccn2)CC1` [Compound 137], the IC50 in assay [1] is under 50 nM; in assay [2], under 50 nM; in assay [3] it was 100 to 1000 nM; in assay [4] (setting [6]), under 50 nM; in assay [5], under 50 nM; at IDH2 R140Q, under 50 nM.
